Consider one compound from patent US11331289B2, “Antimicrobial composition” (priority 2017, dated 2022).

Values after ≈ are worked out from the molar mass of the structure shown.

The test system of the test is Malassezia pachydermatis. Kind of test: MIC, microdilution broth method. The test is classed as cell-based. The procedure: Six clinical isolates from dog skin (n=5) and cats (n=1) which had been sent to EnvA (mycology laboratory of BioPôle Alfort) for mycological culture. The isolates, collected in March 2016, were identified as belonging to the species Malassezia pachydermatis. They were maintained by regular transplanting on medium of Sabouraud. Isolates are subcultured 2 to 3 days prior to testing sensitivity.
A stock solution of Oxyclozanide at 1600 μg/mL is prepared in DMSO. The stock solution is then diluted in DMSO to obtain a concentration range of 3.125 μg/ml to 800 μg/ml. A 1/50 dilution of this range and of the stock solution is then carried out in ultrapure water so as to obtain a concentration range of 0.0625 μg/ml to 32 μg/ml and containing 2% of DMSO. 50 μl of these solutions are deposited in wells of a microplate and then 50 μl of inoculum calibrated at 10^6 CFU/ml in Sabouraud/Tween 40 (2%) are added. A range of tested concentrations ranges from 0.0312 μg/mL to 16 μg/mL. The final concentration of DMSO in contact with the inoculum is 1%. The same dilution and seeding protocol was followed with a stock solution of amphotericin B at 1600 μg/ml. A “placebo” (or yeast growth control) column is systematically included in the plates. The plates are incubated at 37 ° C. The reading is done at 24 and 48 h. Several trials were conducted and protocol adjustments were required. In particular, the concentration of the inoculum had to be reduced for antifungal activity to be observed.
(In general: Dilution methods test growth across graded concentrations, often in twofold steps.)

Take `C[C@@H]1[C@H](O)[C@@H](C)/C=C/C=C/C=C/C=C/C=C/C=C/C=C/[C@H](O[C@@H]2O[C@H](C)[C@@H](O)[C@H](N)[C@@H]2O)C[C@@H]2O[C@](O)(C[C@@H](O)C[C@@H](O)[C@H](O)CC[C@@H](O)C[C@@H](O)CC(=O)O[C@H]1C)C[C@H](O)[C@H]2C(=O)O` [Amphoterine B, amphotericin B]: the MIC (in general, the least concentration at which growth counts as inhibited) (Isolate 1, Assay 1, 10^6 CFU/ml) was determined as 2 µg/mL (≈ 2.16 µM); the MIC (Isolate 1, Assay 2, 10^6 CFU/ml) worked out at 4 µg/mL (≈ 4.33 µM); the MIC (Isolate 2, Assay 1, 10^6 CFU/ml) was 2 µg/mL (≈ 2.16 µM); the MIC (Isolate 2, Assay 2, 10^6 CFU/ml) turned out to be 2 µg/mL (≈ 2.16 µM); the MIC (Isolate 3, Assay 1, 10^6 CFU/ml) was 4 µg/mL (≈ 4.33 µM); the MIC (Isolate 3, Assay 2, 10^6 CFU/ml) came out at 8 µg/mL (≈ 8.66 µM). Moreover, the MIC is, setting by setting: (Isolate 4, Assay 1, 10^6 CFU/ml) 4 µg/mL (≈ 4.33 µM); (Isolate 4, Assay 2, 10^6 CFU/ml) 4 µg/mL (≈ 4.33 µM); (Isolate 5, Assay 1, 10^6 CFU/ml) 4 µg/mL (≈ 4.33 µM); (Isolate 5, Assay 2, 10^6 CFU/ml) 4 µg/mL (≈ 4.33 µM); (Isolate 6, Assay 1, 10^6 CFU/ml) 4 µg/mL (≈ 4.33 µM); (Isolate 6, Assay 2, 10^6 CFU/ml) 8 µg/mL (≈ 8.66 µM).
